Reference: PubChem BioAssay AID1259411 (Chemical Carcinogenesis Research Information System (CCRIS), 2018)
Active and inactive are the calls of the source. How the calls were made is not given here.

Test system: rodent carcinogenicity bioassays, tumor incidence
Experiment: CCRIS carcinogenicity studies
Method in brief: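 Archive of carcinogenicity, mutagenicity, tumor promotion and tumor inhibition results drawn from journals, NCI reports and other sources, expert-reviewed; covers 1985-2011 and is no longer updated.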

Q: For `OCCOCCO`, which carcinogen call (Species: RAT, Strain/Sex: F344/FEMALE, Route: ORAL, Dose: 0, 1.25, 2.5% IN DRINKING WATER FOR 108 WK (STUDY DURATION: 108 WK), Dose: 0, 1.25, 2.5% IN DRINKING WATER FOR 108 WK (STUDY DURATION: 108 WK)) is on record?
A: The carcinogen call was “inactive; negative”.

Q: What about the carcinogen call (Species: RAT, Strain/Sex: F344/MALE, Route: ORAL, Dose: 0, 1.25, 2.5% IN DRINKING WATER FOR 108 WK (STUDY DURATION: 108 WK), Dose: 0, 1.25, 2.5% IN DRINKING WATER FOR 108 WK (STUDY DURATION: 108 WK)) of the same molecule?
A: The carcinogen call was “inactive; negative”.

Q: With `O=[N+]([O-])c1ccc2c(c1)Cc1cc([N+](=O)[O-])ccc1-2` as the molecule, how does the carcinogen call (Species: Rat, Strain/Sex: Sprague-Dawley/Female (16/group), Route: Intraperitoneal, Dose: 10 umol/kg 3 times a wk for 4 wk (avg total dose 16.0 umol/rat), animals retained for up to 90 wk after last dosing (Tes, Tumor Site: Type of Lesion: Mammary Gland: % of rats with tumors (malignant 44, benign 38 vs 6 malignant, 53 benign in vehicle controls)) read?
A: The carcinogen call was “active; positive for malignant tumors only (p=0.02). dna adducts observed in mammary gla”.

Q: What about the carcinogen call (Species: Rat, Strain/Sex: Sprague-Dawley/Female (17/group), Route: Oral, Dose: 10 umol/kg 3 times a wk for 4 wk (avg total dose 18.0 umol/rat), animals retained for up to 90 wk after last dosing (Tes, Tumor Site: Type of Lesion: Mammary Gland: % of rats with tumors (malignant 29, benign 53 vs 12 malignant, 53 benign in vehicle controls)) of the same molecule?
A: Its carcinogen call is “inactive; negative. dna adducts observed in mammary gland dna collected 24 hr after last d”.

Q: Which carcinogen call (Species: HUMAN, Route: INHALATION, ORAL, Tumor Site: Type of Lesion: LUNG, INTEGUMENTARY SYSTEM (SKIN)) does the source give for `[As]` here?
A: The carcinogen call was “active; positive”.

Q: Which results are given for `COc1cc(OC)nc(NC(=O)NS(=O)(=O)c2c(Cl)nc3ccccn23)n1`?
A: carcinogen call (Species: Mouse, Strain/Sex: CD-1/Female (50/Group), Route: Oral, Dose: 0, 86.8, 870.0, 10,303.5 mg/kg/day of 99.6-99.8% imazosulfuron in diet for 18 mo, study duration 18 mo, Dose: 0, 86.8, 870.0, 10,303.5 mg/kg/day of 99.6-99.8% imazosulfuron in diet for 18 mo, study duration 18 mo): inactive; negative; carcinogen call (Species: Mouse, Strain/Sex: CD-1/Male (50/Group), Route: Oral, Dose: 0, 72.7, 741.3, 7848.1 mg/kg/day of 99.6-99.8% imazosulfuron in diet for 18 mo, study duration 18 mo, Dose: 0, 72.7, 741.3, 7848.1 mg/kg/day of 99.6-99.8% imazosulfuron in diet for 18 mo, study duration 18 mo): inactive; negative; carcinogen call (Species: Rat, Strain/Sex: CD (Sprague-Dawley derived)/Female (50/Group), Route: Oral, Dose: 0, 12.94, 132.46, 1554.35 mg/kg/day of 99.6-99.8% imazosulfuron in diet for 24 mo, study duration 24 mo, Dose: 0, 12.94, 132.46, 1554.35 mg/kg/day of 99.6-99.8% imazosulfuron in diet for 24 mo, study duration 24 mo): inactive; negative; carcinogen call (Species: Rat, Strain/Sex: CD (Sprague-Dawley derived)/Male (50/Group), Route: Oral, Dose: 0, 10.39, 106.10, 1123.99 mg/kg/day of 99.6-99.8% imazosulfuron in diet for 24 mo, study duration 24 mo, Dose: 0, 10.39, 106.10, 1123.99 mg/kg/day of 99.6-99.8% imazosulfuron in diet for 24 mo, study duration 24 mo): inactive; negative

Q: Which carcinogen call (Species: MOUSE, Strain/Sex: SWISS/FEMALE, Route: DERMAL, Dose: 0, 100 MG/KG IN 100 µL ACETONE 3/WK FOR 52 WK (STUDY DURATION: 52 WK)) does the source give for `CNC(=O)Oc1cccc2ccccc12` here?
A: Its carcinogen call is “inactive; negative”.

Q: And the carcinogen call (Species: Mouse, Strain/Sex: CD-1/Female (70/group), Route: Oral, Dose: 0, 100, 1,000, 8,000 ppm in feed for 104 wk, Dose: 0, 100, 1,000, 8,000 ppm in feed for 104 wk, Tumor Site: Type of Lesion: BLOOD VESSELS: Hemangiosarcoma and hemangioma (high dose only). LIVER: Hepatocellular adenoma and carcinoma (high dose o)?
A: The carcinogen call was “active; positive (purity 99.3%; study details not given in source; mtd may have been exc”.

Q: And the carcinogen call (Species: Mouse, Strain/Sex: CD-1/Male (70/group), Route: Oral, Dose: 0, 100, 1,000, 8,000 ppm in feed for 104 wk, Dose: 0, 100, 1,000, 8,000 ppm in feed for 104 wk, Tumor Site: Type of Lesion: BLOOD VESSELS: Hemangiosarcoma and hemangioma (all doses). KIDNEY: Renal tubular cell adenoma and carcinoma (high dose o)?
A: Its carcinogen call is “active; positive (purity 99.3%; study details not given in source; neoplastic lesions co”.

Q: What about the carcinogen call (Species: RAT, Strain/Sex: SWISS, Route: GAVAGE, Dose: 0, 30 MG/KG BW, 1/D FOR UP TO 22 MO, Tumor Site: Type of Lesion: INTESTINES: FIBROSARCOMA, BONE: OSTEOSARCOMA) of the same molecule?
A: The carcinogen call was “active; positive”.

Q: What about the carcinogen call (Species: Rat, Strain/Sex: Sprague-Dawley/Male (50/control and high-dose group and 40 per low-and mid-dose group), Route: Oral, Dose: 0, 250, 1,500, 7,500 ppm in feed for 104 wk, Dose: 0, 250, 1,500, 7,500 ppm in feed for 104 wk, Tumor Site: Type of Lesion: URINARY BLADDER: papilloma and carcinoma at highest dose. KIDNEY: one transitional cell carcinoma. LIVER: adenoma. THYRO) of the same molecule?
A: Its carcinogen call is “active; positive at the high dose level (purity 99%; study details not given in source)”.

Q: With `Cc1ccc(N=CN(C)C=Nc2ccc(C)cc2C)c(C)c1` as the molecule, how does the carcinogen call (Species: Mouse, Strain/Sex: B6C3F1/Female, Route: Oral (diet), Dose: 0, 25, 100, 400 ppm in feed for 104 wks, Dose: 0, 25, 100, 400 ppm in feed for 104 wks, Tumor Site: Type of Lesion: Liver: Hepatocellular adenoma/carcinoma (5/80, 1/61, 3/62, 24/56)) read?
A: Its carcinogen call is “active; positive (at highest dose)”.

Q: And the carcinogen call (Species: Mouse, Strain/Sex: B6C3F1/Male, Route: Oral (diet), Dose: 0, 25, 100, 400 ppm in feed for 104 wks, Dose: 0, 25, 100, 400 ppm in feed for 104 wks)?
A: The carcinogen call was “inactive; negative”.

Q: What about the carcinogen call (Species: Rat, Strain/Sex: Wistar/Female, Route: Oral (diet), Dose: 0, 15, 50, 200 ppm in feed for 104 wks, Dose: 0, 15, 50, 200 ppm in feed for 104 wks) of the same molecule?
A: The carcinogen call was “inactive; negative; purity 97.8 and 99.8%”.

Q: And the carcinogen call (Species: Rat, Strain/Sex: Wistar/Male, Route: Oral (diet), Dose: 0, 15, 50, 200 ppm in feed for 104 wks, Dose: 0, 15, 50, 200 ppm in feed for 104 wks)?
A: Its carcinogen call is “inactive; negative; purity 97.8 and 99.8%”.

Q: How did the carcinogen call (Species: MOUSE, Strain/Sex: ICR/FEMALE, Route: ORAL, Dose: 0, 0.15, 0.3, 0.6% IN DIET FOR 102 WK (STUDY DURATION: 106 WK), Dose: 0, 0.15, 0.3, 0.6% IN DIET FOR 102 WK (STUDY DURATION: 106 WK)) turn out when `CC(C)COC(=O)c1ccc(O)cc1` was run?
A: Its carcinogen call is “inactive; negative”.

Q: And the carcinogen call (Species: MOUSE, Strain/Sex: ICR/MALE, Route: ORAL, Dose: 0, 0.15, 0.3, 0.6% IN DIET FOR 102 WK (STUDY DURATION: 106 WK), Dose: 0, 0.15, 0.3, 0.6% IN DIET FOR 102 WK (STUDY DURATION: 106 WK))?
A: The carcinogen call was “inactive; negative”.

Q: `C=C(C)CN(CC)c1c([N+](=O)[O-])cc(C(F)(F)F)cc1[N+](=O)[O-]` was tested. Which carcinogen call (Species: Mouse, Strain/Sex: B6C3F1/Female (40/Experimental group; 60/Control group), Route: Oral, Dose: 0, 100, 400, 1500 ppm of 94.5% ethalfluralin in diet for 2 yr, study duration 2 yr (2 replicate studies)., Dose: 0, 100, 400, 1500 ppm of 94.5% ethalfluralin in diet for 2 yr, study duration 2 yr (2 replicate studies).) did it give?
A: Its carcinogen call is “inactive; negative”.

Q: And the carcinogen call (Species: Mouse, Strain/Sex: B6C3F1/Male (40/Experimental group; 60/Control group), Route: Oral, Dose: 0, 100, 400, 1500 ppm of 94.5% ethalfluralin in diet for 2 yr, study duration 2 yr (2 replicate studies)., Dose: 0, 100, 400, 1500 ppm of 94.5% ethalfluralin in diet for 2 yr, study duration 2 yr (2 replicate studies).)?
A: Its carcinogen call is “inactive; negative”.

Q: What about the carcinogen call (Species: Rat, Strain/Sex: Fischer 344/Female (30/Group; replicate studies using 94.5% ethalfluralin), Route: Oral, Dose: 0, 0.01, 0.025, 0.075% (0; 4.2; 10.7; 32.3 mg/kg/d) in diet for 2 yr, study duration 2 yr, Dose: 0, 0.01, 0.025, 0.075% (0; 4.2; 10.7; 32.3 mg/kg/d) in diet for 2 yr, study duration 2 yr, Tumor Site: Type of Lesion: Mammary gland: Benign fibroadenomas) of the same molecule?
A: Its carcinogen call is “active; positive”.

Q: What about the carcinogen call (Species: Rat, Strain/Sex: Fischer 344/Male (30/Group; replicate studies using 94.5% ethalfluralin), Route: Oral, Dose: 0, 0.01, 0.025, 0.075% (0; 4.2; 10.7; 32.3 mg/kg/d) in diet for 2 yr, study duration 2 yr, Dose: 0, 0.01, 0.025, 0.075% (0; 4.2; 10.7; 32.3 mg/kg/d) in diet for 2 yr, study duration 2 yr) of the same molecule?
A: The carcinogen call was “inactive; negative”.

Q: Which results are given for `CCOP(=O)=O.CCOP(=O)=O.CCOP(=O)=O.[Al+3]`?
A: carcinogen call (Species: Mouse, Strain/Sex: CD-1/Female (60/Group), Route: Oral): inactive; negative; carcinogen call (Species: Mouse, Strain/Sex: CD-1/Male (60/Group), Route: Oral): inactive; negative; carcinogen call (Species: Rat, Strain/Sex: CD Sprague-Dawley/Male (80/Group), Route: Oral, Dose: 0, 88, 348, 1372 mg/kg/day in diet for 24 mo, study duration 24 mo, Dose: 0, 88, 348, 1372 mg/kg/day in diet for 24 mo, study duration 24 mo, Tumor Site: Type of Lesion: Adrenal medulla: pheochromocytoma (5/80, 7/79. 15/81, 16/81). Urinary bladder: Carcinoma and papilloma combined (1/78 in): active; positive. (department of pesticides regulation reviewer described as a possible; carcinogen call (Species: Rat, Strain/Sex: CD Sprague-Dawley/Male (80/Group), Route: Oral, Dose: 0, 117, 450, 1786 mg/kg/day in diet for 24 mo, study duration 24 mo, Dose: 0, 117, 450, 1786 mg/kg/day in diet for 24 mo, study duration 24 mo): inactive; negative

Q: How did the carcinogen call (Species: RAT, Strain/Sex: LIO/FEMALE, Route: SUBCUTANEOUS, Dose: 0, 3.2 MG ON DAY 1 OR ON DAYS 1 AND 3 OR ON DAYS 1, 3, 7, AND 21 FOLLOWING BIRTH FOR TOTAL DOSES OF 3.2, 6.4, OR 12.8 MG, Tumor Site: Type of Lesion: THYROID: ADENOMA, KIDNEY: MESENCHYMAL TUMORS) turn out when `O=c1[nH]c(=O)n([C@H]2C[C@H](O)[C@@H](CO)O2)cc1Br` was run?
A: Its carcinogen call is “active; positive”.

Q: And the carcinogen call (Species: RAT, Strain/Sex: LIO/MALE, Route: SUBCUTANEOUS, Dose: 0, 3.2 MG ON DAY 1 OR ON DAYS 1 AND 3 OR ON DAYS 1, 3, 7, AND 21 FOLLOWING BIRTH FOR TOTAL DOSES OF 3.2, 6.4, OR 12.8 MG, Tumor Site: Type of Lesion: TESTES: LEYDIGOMA)?
A: Its carcinogen call is “active; positive”.
